Measurements: article PMC9044058 (The Journal of General Physiology, 2022)
Several values for one entry are separate records, joined by “and”; a condition that tells them apart may be missing. Equal values may be shown once. Read-outs that look alike come from different tables or passages of the source.

How the values were obtained:
WT GltPh = target: T1, WT GltPh (Pyrococcus horikoshii, UniProt O59010, D37H/E368H/K125H/K132H/K223H/K264H/K40H); assay: ITC of L-Asp and TFB-TBOA binding to WT GltPh
T1 construct: (His)8 behind a thrombin cleavage site (C, cleaved yes); made in house; host or cells: Escherichia coli DH10B
T1 sequence (O59010 1-417 D37H/K40H/K125H/K132H/K223H/K264H/E368H): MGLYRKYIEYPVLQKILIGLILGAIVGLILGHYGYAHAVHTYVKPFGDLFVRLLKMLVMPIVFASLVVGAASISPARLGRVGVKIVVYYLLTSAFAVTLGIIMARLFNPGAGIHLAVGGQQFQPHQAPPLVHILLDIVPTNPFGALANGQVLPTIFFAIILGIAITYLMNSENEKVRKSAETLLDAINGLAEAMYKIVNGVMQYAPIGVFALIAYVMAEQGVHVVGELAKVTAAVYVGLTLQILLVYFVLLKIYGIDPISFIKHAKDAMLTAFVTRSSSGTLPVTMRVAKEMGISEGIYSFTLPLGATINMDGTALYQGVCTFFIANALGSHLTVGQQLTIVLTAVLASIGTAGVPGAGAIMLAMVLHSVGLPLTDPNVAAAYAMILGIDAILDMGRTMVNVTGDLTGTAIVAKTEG
Protocol: (§1) Proteins were immediately concentrated to >5 mg/ml and diluted 2.5-fold to a final concentration of 30–50 µM. When diluted, the sample was supplemented with a final concentration of 1 mM DDM, 58 mM HEPES/KOH, pH 7.4, and an appropriate amount of sodium salt. 350 μl of protein samples was degassed and equilibrated to the temperature of the experiment, and ∼300 μl was loaded into the reaction cell of a small-volume NanoITC (TA Instruments), or in the case of TFB-TBOA experiments, an Affinity Auto ITC (TA Instruments). […] 2 μl of titrant was injected every 5–6 min, at a constant temperature and a stirring rate of 250 rpm (125 rpm for TFB-TBOA experiments). Injection heats measured after protein was saturated with the ligand were used to determine the dilution heats subtracted from the ligand binding heats. Data were analyzed using NanoAnalyze software (TA Instruments) applying either the “independent” or “multiple sites” (referred to as “single-state” and “two-state,” respectively, throughout the text) binding models. […] The fraction of total protein bound is given by the following: [PS]/[P]=n1K1[S]/1+K1[S]+n2K2[S]/1+K2[S], where ni is the apparent number of sites per protein molecule.
For the TFB-TBOA competition experiments, protein was first titrated with TBOA to saturation. Then, the concentration of TFB-TBOA was increased to a final concentration of 150 μM of TFB-TBOA, so that the overflow protein was also saturated.

GltPh = system: GltPh; design: method as in earlier work; conditions: OFS over IFS; ref Mcilwain et al., 2016; Boudker et al., 2007; Wang and Boudker, 2020; cited from earlier work
P-GltPh (S279E/D405N) [1] = target: P-GltPh (S279E/D405N) (UniProt O59010); assay: cryo-EM structure; P-GltPh in 0.8 mM DDM, 20 mM HEPES/Tris pH 7.4, 250 mM NaNO3, 1 mM L-Asp; C3 symmetry imposed, then symmetry expansion and focused classification of single protomers; Data S2 (L-Asp present throughout purification) and Data S1 (L-Asp added ~5 s before freezing)
P-GltPh (S279E/D405N) [2] = target: T2, P-GltPh (S279E/D405N) (Pyrococcus horikoshii, UniProt O59010, D37H/D405N/E368H/K125H/K132H/K223H/K264H/K40H/S279E); assay type: binding; conditions: for n1 / n2: single trials; for % n2 / ΔS1: trials and avg (mean ± SD); for fitted OFS2 fraction: L-Asp ITC, 500 mM sodium salt
T2 construct: (His)8 behind a thrombin cleavage site (C, cleaved yes); made in house; host or cells: Escherichia coli DH10B
T2 sequence (O59010 1-417 D37H/K40H/K125H/K132H/K223H/K264H/S279E/E368H/D405N): as the sequence (O59010 1-417 D37H/K40H/K125H/K132H/K223H/K264H/E368H) above, with S279E, D405N counted along it
Protocol: as §1

[3] = system: liposome-reconstituted GltPh; design: method as in Hall et al., 2020; conditions: ref Hall et al., 2020; cited from earlier work
D390A mutant = system: D390A mutant; design: method as in Riederer and Valiyaveetil, 2019; conditions: ref Riederer and Valiyaveetil, 2019; cited from earlier work
GltPh Y317F = system: GltPh Y317F; design: method as in Riederer and Valiyaveetil, 2019; conditions: ref Riederer and Valiyaveetil, 2019; cited from earlier work
GltPh (C321A/N378C) = target: T3, GltPh (C321A/N378C) (Pyrococcus horikoshii, UniProt O59010, C321A/D37H/E368H/K125H/K132H/K223H/K264H/K40H/N378C); assay type: biochemical; conditions: 200 mM sodium salt, 1 μM valinomycin, 1 μM L-Asp; triexponential fit; means and SEM
T3 construct: (His)8 behind a thrombin cleavage site (C, cleaved yes); made in house; host or cells: Escherichia coli DH10B
T3 sequence (O59010 1-417 D37H/K40H/K125H/K132H/K223H/K264H/C321A/E368H/N378C): as the sequence (O59010 1-417 D37H/K40H/K125H/K132H/K223H/K264H/E368H) above, with C321A, N378C counted along it
Protocol: Liposomes were prepared from a 3:1 (wt/wt) mixture of E. coli polar lipid extract (Avanti Polar Lipids) and egg phosphatidylcholine in SM-KCl buffer (50 mM HEPES/Tris, pH 7.4, and 200 mM KCl). Liposomes were extruded through 400-nm filters (Whatman Nucleopore) using a syringe extruder (Avanti), and destabilized by the addition of Triton X-100 at 1:2 (wt/wt) detergent-to-lipid ratio. Labeled GltPh was added to the liposome suspension at 1:1,000 (wt/wt) protein-to-lipid ratio at room temperature for 30 min. Detergent was removed by six rounds incubation of Bio-Beads (two rounds at 23°C for 2 h each, one round at 4°C overnight, and three rounds at 4°C for 2 h each). The excess substrate was removed by three rounds of centrifugation for 1 h at 49,192 g at 4°C, removal of the supernatant, addition of 1 ml fresh SM buffer, and three freeze/thaw cycles. Liposomes were concentrated to 50 mg/ml, and ccPEB1a-Y198F labeled with activated LD555P-MAL and LD655-MAL dyes as described ([Ciftci et al., 2020]) was added at a final concentration of 0.6 μM and encapsulated by two freeze–thaw cycles. To remove unencapsulated ccPEB1a-Y198F, 1 ml of SM-KCl buffer was added, and liposomes were centrifuged for 1 h at 49.192 g at 4°C. […]
Buffers were supplemented with an oxygen-scavenging system as above, and the smFRET movies were recorded with 400-ms integration time using 20–40-mW laser power. […]
Traces were analyzed using Spartan software ([Juette et al., 2016]). […] Traces with multiple photobleaching events (indicative of multiple sensors in a liposome) or inconsistent total fluorescence intensity were also discarded. Remaining traces were sorted by either the presence or absence of observable transport events (responding and nonresponding traces, respectively), determined by an increase in FRET efficiency from ∼0.55–0.6 to ∼0.75–0.8.
Responding traces from each video were plotted as time-dependent mean FRET efficiency. Buffer replacement time was determined as described ([Ciftci et al., 2020]). […]

[4] = 500 mM NaCl, 10°C and 15°C, n = 6
[5] = 10°C, 500 mM NaCl, two-state model
[6] = 15°C, 500 mM NaCl, two-state model
[7] = 500 mM Na-gluconate, 15°C, Fit 1
[8] = 500 mM Na-gluconate, 15°C, Fit 2

Compound: N[C@H](C(=O)O)[C@H](OCc1cccc(NC(=O)c2ccc(C(F)(F)F)cc2)c1)C(=O)O [TFB-TBOA]
- shape of ITC binding isotherms (WT GltPh; 15°C, 500 mM Na-gluconate, NaCl or NaNO3): bimodal ITC isotherms
- preference for OFS (GltPh): 100 fold

Compound: P-GltPh (S279E/D405N) (from UniProt O59010 1-417)
- stoichiometry N (P-GltPh (S279E/D405N) [1]): 3

Compound: N[C@@H](CC(=O)O)C(=O)O [L-Asp, L-aspartate]
- sums of the apparent stoichiometries (n1 and n2 values), average (P-GltPh (S279E/D405N) [2]; [4]): 0.97 ± 0.26
- sums of the apparent stoichiometries (n1 and n2 values), range (P-GltPh (S279E/D405N) [2]; [4]): 0.74–1.53
- n1 (P-GltPh (S279E/D405N) [2]; [5]): 0.61 and 0.64 and 0.78
- n2 (P-GltPh (S279E/D405N) [2]; [5]): 0.13 and 0.20 and 0.18
- % n2 (P-GltPh (S279E/D405N) [2]; [5]): 18% and 24% and 19%
- ΔS1 (P-GltPh (S279E/D405N) [2]; [5]): 32.2 cal mol^-1 K^-1 and 40.0 cal mol^-1 K^-1 and 31.1 cal mol^-1 K^-1
- ΔH (P-GltPh (S279E/D405N) [2]; 15°C, 50 mM NaCl, single-state model): -2.3 kcal/mol
- ΔH (P-GltPh (S279E/D405N) [2]; 15°C, 500 mM Na-gluconate, two-state model, first state): -2.3 kcal/mol
- ΔH (P-GltPh (S279E/D405N) [2]; 15°C, 500 mM Na-gluconate, two-state model, second state): -5.5 kcal/mol
- ΔH (P-GltPh (S279E/D405N) [2]; 15°C, 500 mM NaCl, two-state model, first state): -3.3 kcal/mol
- ΔH (P-GltPh (S279E/D405N) [2]; 15°C, 500 mM NaCl, two-state model, second state): -7.1 kcal/mol
- n1 (P-GltPh (S279E/D405N) [2]; [6]): 1.13 and 0.64 and 0.63
- n2 (P-GltPh (S279E/D405N) [2]; [6]): 0.39 and 0.22 and 0.29
- % n2 (P-GltPh (S279E/D405N) [2]; [6]): 26% and 31%
- ΔS1 (P-GltPh (S279E/D405N) [2]; [6]): 29.4 cal mol^-1 K^-1 and 29.2 cal mol^-1 K^-1 and 31.4 cal mol^-1 K^-1
- ΔH (P-GltPh (S279E/D405N) [2]; 15°C, 500 mM NaNO3, two-state model, first state): -2.1 kcal/mol
- ΔH (P-GltPh (S279E/D405N) [2]; 15°C, 500 mM NaNO3, two-state model, second state): -6.5 kcal/mol
- ΔH (P-GltPh (S279E/D405N) [2]; 15°C, 1 M NaCl, two-state model, first state): -3.7 kcal/mol
- ΔH (P-GltPh (S279E/D405N) [2]; 15°C, 1 M NaCl, two-state model, second state): -8.7 kcal/mol
- n1 (WT GltPh; [7]): 0.82
- n2 (WT GltPh; [7]): 0.36
- ΔH1 (WT GltPh; [7]): -22.7 kcal/mol
- ΔH2 (WT GltPh; [7]): 39.4 kcal/mol
- n1 (WT GltPh; [8]): 0.37
- n2 (WT GltPh; [8]): 0.89
- ΔH1 (WT GltPh; [8]): -50.0 kcal/mol
- ΔH2 (WT GltPh; [8]): 16.2 kcal/mol
- n1 (WT GltPh; 500 mM Na-gluconate, 35°C): 0.16
- n2 (WT GltPh; 500 mM Na-gluconate, 35°C): 1.30
- ΔH1 (WT GltPh; 500 mM Na-gluconate, 35°C): -24.6 kcal/mol
- ΔH2 (WT GltPh; 500 mM Na-gluconate, 35°C): -4.7 kcal/mol
- shape of ITC competition isotherms (WT GltPh; GltPh saturated with TFB-TBOA, competed with L-Asp, 15°C): bimodal isotherms
- Hill coefficient [3]: 0.69
- lower affinity versus GltPh (D390A mutant): 1,000 fold
- loss of L-Asp affinity (GltPh Y317F): 10 fold

Compound: [Cl-].[Na+] [NaCl]
- fitted OFS2 fraction (P-GltPh (S279E/D405N) [2]; 10°C): ~20%
- fitted OFS2 fraction (P-GltPh (S279E/D405N) [2]; 15°C): ~28%
- Slow (%) transporter population (GltPh (C321A/N378C)): 79.5 ± 3.4%

Compound: O=C([O-])[C@H](O)[C@@H](O)[C@H](O)[C@H](O)CO.[Na+] [Na-gluconate, sodium gluconate]
- Slow (%) transporter population (GltPh (C321A/N378C)): 81.1 ± 3.1%

Compound: O=[N+]([O-])[O-].[Na+] [NaNO3]
- fitted OFS2 fraction (P-GltPh (S279E/D405N) [2]; 15°C): ~38%
- Slow (%) transporter population (GltPh (C321A/N378C)): 87.3 ± 2.2%
